One compound from patent US8586609B2, “Aryl-substituted polycyclic amines, method for the production thereof, and use thereof as a medicament” (Sanofi-Aventis Deutschland GmbH, priority 2004, dated 2013) can be followed below.

In this assay the test system is female NMRI mice. As to the kind of experiment: Anorectic effect: reduction in cumulative milk consumption of treated compared with control animals. Conditions: oral dose 30 mg/kg by gavage; female NMRI mice after withdrawal of feed for 17 hours; condensed milk consumption determined every half hour for 7 hours. Format: in vivo. As to the method:
The anorectic effect was tested on female NMRI mice. After withdrawal of feed for 17 hours, the test product was administered by gavage. The animals were housed singly with free access to drinking water and were offered condensed milk 30 minutes after administration of the product. The condensed milk consumption was determined every half hour for 7 hours, and the general wellbeing of the animals was observed. The measured milk consumption was compared with the vehicle-treated control animals.

The structures appear in SMILES notation.

In the case of `CN1C[C@H]2CCN(c3ccc(NC(=O)N4CCC(c5ccc(Cl)cc5)CC4)cc3)[C@H]2C1` (stereo in doubt) [Example 9, 4-(4-Chlorophenyl)piperidine-1-carboxylic acid [4-(5-methylhexahydropyrrolo[3,4-b]pyrrol-1-yl)phenyl]amide], the “Reduction in cumulative milk consumption as % of the control” value is given as 82 % of the control.
